Assay results reported in PubChem BioAssay AID248 (DTP/NCI, 2004).
Values joined by “and” are separate entries in the source; they are usually repeats but may differ in a detail not shown here. Identical values can stand only once. Toxic doses and inconclusive results are not listed. No stated cut-off is given here; in the data, active means T/C of 150% or more; inactive means T/C below 125%.

System: L1210 leukemia ip in BDF1 mice, survival T/C
Test: NCI In Vivo Anticancer Drug Screen. Data for tumor model L1210 Leukemia (intraperitoneal) in B6D2F1 (BDF1) mice
Details: endpoint: mean survival time, higher = longer survival
Summary of the method: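 Ratio derived from survival: compound-dosed mice over vehicle-dosed mice, all bearing a transplantable tumor.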

[1] = dose: 100.0 mg/kg/injection, schedule: Q04DX003 (ip), vehicle: saline
[2] = dose: 200.0 mg/kg/injection, schedule: Q04DX003 (ip), vehicle: saline
[3] = dose: 25.0 mg/kg/injection, schedule: Q01DX009 (ip), vehicle: Klucel (hydroxypropylcellulose) (HPC)
[4] = dose: 100.0 mg/kg/injection, schedule: Q01DX009 (ip), vehicle: Klucel (hydroxypropylcellulose) (HPC)
[5] = dose: 200.0 mg/kg/injection, schedule: Q01DX009 (ip), vehicle: Klucel (hydroxypropylcellulose) (HPC)
[6] = dose: 400.0 mg/kg/injection, schedule: Q01DX009 (ip), vehicle: Klucel (hydroxypropylcellulose) (HPC)
[7] = dose: 12.5 mg/kg/injection, schedule: Q04DX002 (ip), vehicle: Klucel (hydroxypropylcellulose) (HPC)
[8] = dose: 25.0 mg/kg/injection, schedule: Q04DX002 (ip), vehicle: Klucel (hydroxypropylcellulose) (HPC)
[9] = dose: 50.0 mg/kg/injection, schedule: Q04DX002 (ip), vehicle: Klucel (hydroxypropylcellulose) (HPC)

Measured: T/C

CC(=O)c1ccc2ccccc2c1O
inactive: dose: 100.0 mg/kg/injection, schedule: Q01DX009 (ip), vehicle: other 97 % of control | [1] 101 % of control | dose: 200.0 mg/kg/injection, schedule: Q01DX009 (ip), vehicle: other 103 % of control | [2] 90 % of control | dose: 400.0 mg/kg/injection, schedule: Q01DX009 (ip), vehicle: other 106 % of control | dose: 400.0 mg/kg/injection, schedule: Q04DX003 (ip), vehicle: saline 88 % of control

CSc1nnc(N)s1
inactive: [3] 91 % of control | dose: 50.0 mg/kg/injection, schedule: Q01DX009 (ip), vehicle: Klucel (hydroxypropylcellulose) (HPC) 94 % of control | [4] 94 % of control | dose: 100.0 mg/kg/injection, schedule: Q04DX002 (ip), vehicle: Klucel (hydroxypropylcellulose) (HPC) 94 % of control and 91 % of control | [5] 99 % of control | dose: 200.0 mg/kg/injection, schedule: Q04DX002 (ip), vehicle: Klucel (hydroxypropylcellulose) (HPC) 97 % of control and 98 % of control | [6] 98 % of control | dose: 400.0 mg/kg/injection, schedule: Q04DX002 (ip), vehicle: Klucel (hydroxypropylcellulose) (HPC) 103 % of control | dose: 800.0 mg/kg/injection, schedule: Q04DX002 (ip), vehicle: Klucel (hydroxypropylcellulose) (HPC) 87 % of control

CSc1ccc(NC(=O)c2ccc(C(=O)Nc3ccc(SC)cc3)cc2)cc1
inactive: [4] 94 % of control | [5] 89 % of control | [6] 89 % of control

C1CCC2[N-]CC3CCCCC3[N-]CC3CCCCC3[N-]CC3CCCCC3[N-]CC2C1.[Cu+2].[O-][Cl+3]([O-])([O-])O (stereo unspecified)
inactive: [7] 111 % of control | [8] 108 % of control | [9] 108 % of control

O=S(=O)(F)c1cccc(C[P+](c2ccccc2)(c2ccccc2)c2ccccc2)c1
inactive: dose: 25.0 mg/kg/injection, schedule: Q01DX009 (ip), vehicle: saline with Tween-80 95 % of control | dose: 50.0 mg/kg/injection, schedule: Q01DX009 (ip), vehicle: saline with Tween-80 101 % of control | dose: 100.0 mg/kg/injection, schedule: Q04DX003 (ip), vehicle: acetone 94 % of control

NC(N)=Nc1ccc([N+](=O)[O-])cc1
inactive: [7] 103 % of control | [8] 98 % of control | [9] 103 % of control

CCCC(=O)N1CCC(C)CC1
inactive: dose: 50.0 mg/kg/injection, schedule: Q01DX001 (ip), vehicle: saline 103 % of control | dose: 50.0 mg/kg/injection, schedule: Q01DX009 (ip), vehicle: saline 97 % of control and 98 % of control | dose: 50.0 mg/kg/injection, schedule: Q04DX002 (ip), vehicle: saline 112 % of control | dose: 50.0 mg/kg/injection, schedule: Q04DX003 (ip), vehicle: saline 100 % of control | dose: 100.0 mg/kg/injection, schedule: Q01DX001 (ip), vehicle: saline 100 % of control | dose: 100.0 mg/kg/injection, schedule: Q01DX009 (ip), vehicle: saline 98 % of control | dose: 100.0 mg/kg/injection, schedule: Q04DX002 (ip), vehicle: saline 102 % of control | [1] 107 % of control | dose: 200.0 mg/kg/injection, schedule: Q01DX001 (ip), vehicle: saline 103 % of control | dose: 200.0 mg/kg/injection, schedule: Q01DX009 (ip), vehicle: saline 94 % of control and 113 % of control | dose: 200.0 mg/kg/injection, schedule: Q04DX002 (ip), vehicle: saline 102 % of control | [2] 95 % of control

O=C(O)/C=C/c1c2ccc(=O)c(O)c-2oc2c(O)c(O)ccc12
inactive: dose: 10.0 mg/kg/injection, schedule: Q04DX003 (ip), vehicle: other 94 % of control | dose: 20.0 mg/kg/injection, schedule: Q04DX003 (ip), vehicle: other 98 % of control | dose: 40.0 mg/kg/injection, schedule: Q04DX003 (ip), vehicle: other 88 % of control | dose: 50.0 mg/kg/injection, schedule: Q04DX003 (ip), vehicle: other 106 % of control | dose: 80.0 mg/kg/injection, schedule: Q04DX003 (ip), vehicle: other 89 % of control | dose: 100.0 mg/kg/injection, schedule: Q04DX003 (ip), vehicle: other 107 % of control

C(CCCCCC1CCC2CCCC2C1)CCCCC1CCC2CCCC2C1 (stereo unspecified)
inactive: dose: 100.0 mg/kg/injection, schedule: Q01DX001 (ip), vehicle: saline with Tween-80 87 % of control | dose: 200.0 mg/kg/injection, schedule: Q01DX001 (ip), vehicle: saline with Tween-80 101 % of control | dose: 400.0 mg/kg/injection, schedule: Q01DX001 (ip), vehicle: saline with Tween-80 87 % of control

CC1(C)CCCC2(C)C(O)C3CCC2C31 (stereo unspecified)
inactive: dose: 100.0 mg/kg/injection, schedule: Q01DX001 (ip), vehicle: Klucel (hydroxypropylcellulose) (HPC) 96 % of control | dose: 200.0 mg/kg/injection, schedule: Q01DX001 (ip), vehicle: Klucel (hydroxypropylcellulose) (HPC) 91 % of control | dose: 400.0 mg/kg/injection, schedule: Q01DX001 (ip), vehicle: Klucel (hydroxypropylcellulose) (HPC) 90 % of control

CC(C)(C#N)c1ccnc2ccccc12
inactive: dose: 12.5 mg/kg/injection, schedule: Q01DX009 (ip), vehicle: Klucel (hydroxypropylcellulose) (HPC) 89 % of control | [3] 100 % of control | dose: 25.0 mg/kg/injection, schedule: Q04DX003 (ip), vehicle: Klucel (hydroxypropylcellulose) (HPC) 104 % of control | dose: 50.0 mg/kg/injection, schedule: Q04DX003 (ip), vehicle: Klucel (hydroxypropylcellulose) (HPC) 96 % of control | dose: 100.0 mg/kg/injection, schedule: Q04DX003 (ip), vehicle: Klucel (hydroxypropylcellulose) (HPC) 96 % of control
